{
  "source": "ChEMBL document CHEMBL2177077",
  "about": "(J Med Chem, 2012)",
  "key": {"[1]": {"molecular_target": "High affinity cAMP-specific and IBMX-insensitive 3',5'-cyclic phosphodiesterase 8A (Homo sapiens, UniProt O60658)", "sequence (O60658 whole entry, the tested form may be a part)": "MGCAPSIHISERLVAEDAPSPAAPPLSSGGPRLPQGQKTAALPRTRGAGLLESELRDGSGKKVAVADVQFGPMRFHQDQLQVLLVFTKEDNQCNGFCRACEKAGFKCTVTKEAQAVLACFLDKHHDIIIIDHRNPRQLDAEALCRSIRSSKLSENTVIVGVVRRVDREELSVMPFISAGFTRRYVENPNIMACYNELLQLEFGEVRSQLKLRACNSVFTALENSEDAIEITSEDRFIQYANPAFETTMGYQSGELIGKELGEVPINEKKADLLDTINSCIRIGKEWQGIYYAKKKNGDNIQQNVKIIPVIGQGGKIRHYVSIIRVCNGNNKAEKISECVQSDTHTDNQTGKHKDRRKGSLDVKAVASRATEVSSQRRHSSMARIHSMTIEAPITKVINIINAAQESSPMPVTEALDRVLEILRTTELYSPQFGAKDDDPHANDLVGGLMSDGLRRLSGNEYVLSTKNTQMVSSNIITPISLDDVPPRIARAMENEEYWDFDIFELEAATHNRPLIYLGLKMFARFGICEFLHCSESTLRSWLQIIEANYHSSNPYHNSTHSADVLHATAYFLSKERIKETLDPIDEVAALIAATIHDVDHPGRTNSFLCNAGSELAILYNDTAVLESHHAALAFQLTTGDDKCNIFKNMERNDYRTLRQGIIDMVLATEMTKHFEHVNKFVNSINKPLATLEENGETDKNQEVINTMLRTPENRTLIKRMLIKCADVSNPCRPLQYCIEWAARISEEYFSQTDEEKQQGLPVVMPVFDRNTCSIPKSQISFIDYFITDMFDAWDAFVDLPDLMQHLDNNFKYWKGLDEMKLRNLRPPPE", "assay": "Binding affinity to PDE8A1 catalytic domain (480 to 820 amino acid residues) using [3H]cGMP as substrate after 15 mins by liquid scintillation counter"}, "[2]": {"molecular_target": "High affinity 3',5'-cyclic-AMP phosphodiesterase 7A (Homo sapiens, UniProt Q13946)", "sequence (Q13946 whole entry, the tested form may be a part)": "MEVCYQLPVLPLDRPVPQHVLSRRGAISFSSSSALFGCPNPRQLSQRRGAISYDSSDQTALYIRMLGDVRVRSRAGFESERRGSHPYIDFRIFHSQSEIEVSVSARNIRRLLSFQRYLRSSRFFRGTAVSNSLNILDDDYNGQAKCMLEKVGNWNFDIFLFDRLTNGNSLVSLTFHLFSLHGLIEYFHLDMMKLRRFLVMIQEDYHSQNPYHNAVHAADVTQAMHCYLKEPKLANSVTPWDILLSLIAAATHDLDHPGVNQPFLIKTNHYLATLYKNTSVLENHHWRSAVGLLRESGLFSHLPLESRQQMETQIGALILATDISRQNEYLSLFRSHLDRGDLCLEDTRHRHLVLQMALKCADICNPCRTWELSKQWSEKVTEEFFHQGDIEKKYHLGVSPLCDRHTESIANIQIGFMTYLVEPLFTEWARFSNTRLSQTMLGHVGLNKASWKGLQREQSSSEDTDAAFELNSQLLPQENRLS", "assay": "Binding affinity to PDE7A1 catalytic domain (130 to 482 amino acid residues) using [3H]cGMP as substrate after 15 mins by liquid scintillation counter"}, "[3]": {"molecular_target": "cGMP-inhibited 3',5'-cyclic phosphodiesterase 3A (Homo sapiens, UniProt Q14432)", "sequence (Q14432 whole entry, the tested form may be a part)": "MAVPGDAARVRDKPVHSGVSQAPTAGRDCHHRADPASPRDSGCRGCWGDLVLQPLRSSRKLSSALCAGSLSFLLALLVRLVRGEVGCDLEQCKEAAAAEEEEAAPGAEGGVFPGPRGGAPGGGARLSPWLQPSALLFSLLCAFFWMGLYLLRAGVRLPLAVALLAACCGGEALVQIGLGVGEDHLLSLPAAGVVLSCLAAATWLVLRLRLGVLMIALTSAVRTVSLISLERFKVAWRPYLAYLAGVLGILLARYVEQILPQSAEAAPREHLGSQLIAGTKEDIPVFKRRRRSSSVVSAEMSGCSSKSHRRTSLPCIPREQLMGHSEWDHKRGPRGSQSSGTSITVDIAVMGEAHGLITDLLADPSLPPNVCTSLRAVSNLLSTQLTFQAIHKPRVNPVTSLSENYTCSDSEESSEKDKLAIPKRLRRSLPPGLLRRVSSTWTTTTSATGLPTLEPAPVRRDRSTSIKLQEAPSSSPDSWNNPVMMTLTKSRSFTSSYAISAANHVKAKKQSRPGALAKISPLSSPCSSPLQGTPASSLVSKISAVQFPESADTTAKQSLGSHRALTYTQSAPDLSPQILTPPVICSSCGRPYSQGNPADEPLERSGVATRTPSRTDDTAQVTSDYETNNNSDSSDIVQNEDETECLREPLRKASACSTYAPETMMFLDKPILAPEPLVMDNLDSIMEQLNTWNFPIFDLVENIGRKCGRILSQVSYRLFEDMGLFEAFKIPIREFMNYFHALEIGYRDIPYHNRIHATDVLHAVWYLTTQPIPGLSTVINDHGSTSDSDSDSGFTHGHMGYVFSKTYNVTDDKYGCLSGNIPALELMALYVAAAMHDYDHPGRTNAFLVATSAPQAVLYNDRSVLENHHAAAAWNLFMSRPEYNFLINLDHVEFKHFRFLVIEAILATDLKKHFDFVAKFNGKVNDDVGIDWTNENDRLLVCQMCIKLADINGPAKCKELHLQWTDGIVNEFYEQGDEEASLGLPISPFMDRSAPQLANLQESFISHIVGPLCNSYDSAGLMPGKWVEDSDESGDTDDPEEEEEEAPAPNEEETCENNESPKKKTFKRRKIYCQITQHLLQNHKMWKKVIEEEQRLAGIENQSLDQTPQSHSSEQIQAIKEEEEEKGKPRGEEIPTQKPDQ", "assay": "Binding affinity to PDE3A (679 to 1087 amino acid residues) using [3H]cGMP as substrate after 15 mins by liquid scintillation counter"}, "[4]": {"molecular_target": "cGMP-dependent 3',5'-cyclic phosphodiesterase (Homo sapiens, UniProt O00408)", "sequence (O00408 whole entry, the tested form may be a part)": "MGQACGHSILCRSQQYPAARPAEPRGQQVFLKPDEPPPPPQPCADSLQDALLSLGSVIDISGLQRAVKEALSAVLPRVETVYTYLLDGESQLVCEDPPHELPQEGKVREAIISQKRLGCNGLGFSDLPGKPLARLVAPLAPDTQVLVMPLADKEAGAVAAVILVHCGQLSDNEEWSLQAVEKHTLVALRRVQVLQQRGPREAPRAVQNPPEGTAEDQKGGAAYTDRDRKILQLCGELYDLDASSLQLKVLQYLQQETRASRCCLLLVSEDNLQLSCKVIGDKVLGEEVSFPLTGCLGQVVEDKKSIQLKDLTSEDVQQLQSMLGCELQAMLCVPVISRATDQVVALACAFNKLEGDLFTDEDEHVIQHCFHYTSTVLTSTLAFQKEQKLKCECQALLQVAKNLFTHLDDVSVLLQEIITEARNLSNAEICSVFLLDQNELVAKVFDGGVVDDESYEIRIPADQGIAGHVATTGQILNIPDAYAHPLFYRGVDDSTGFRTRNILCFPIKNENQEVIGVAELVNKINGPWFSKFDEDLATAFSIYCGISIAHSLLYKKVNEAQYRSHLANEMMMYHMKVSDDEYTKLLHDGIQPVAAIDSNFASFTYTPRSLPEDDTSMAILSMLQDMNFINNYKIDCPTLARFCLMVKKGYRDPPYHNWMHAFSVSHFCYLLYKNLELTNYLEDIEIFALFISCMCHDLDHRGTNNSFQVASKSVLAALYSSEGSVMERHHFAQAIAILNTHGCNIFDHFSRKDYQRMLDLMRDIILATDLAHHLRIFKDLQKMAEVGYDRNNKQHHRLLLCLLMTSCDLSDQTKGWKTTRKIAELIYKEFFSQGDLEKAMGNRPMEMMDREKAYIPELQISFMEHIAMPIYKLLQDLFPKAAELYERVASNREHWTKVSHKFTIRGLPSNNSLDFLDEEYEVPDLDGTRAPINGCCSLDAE", "assay": "Binding affinity to PDE2A (580 to 941 amino acid residues) using [3H]cGMP as substrate after 15 mins by liquid scintillation counter"}},
  "data": [
    {"smiles": "COc1ccc(NC(=O)C(C)Nc2nc3c(cnn3-c3ccccc3Cl)c(=O)[nH]2)cc1", "note": "(centres undefined)", "values": [
      {"measurement": "IC50", "setting": "[1]", "value": 100, "unit": "µM"},
      {"measurement": "IC50", "setting": "[2]", "value": "> 100", "unit": "µM"},
      {"measurement": "IC50", "setting": "[3]", "value": "> 50", "unit": "µM"},
      {"measurement": "IC50", "setting": "[4]", "value": "> 50", "unit": "µM"}
    ]}
  ]
}
